This note sets out measurements from patent US5223526A, “Pyrazole carboxanilide fungicides and use” (Monsanto Company, priority 1992, dated 1993).

Structures are written as SMILES.

Test [1] deals with Botrytis cinerea. The test is described as follows: Eggplant grey mold. It is filed as in vivo. Details: scale not given here. As to conditions: inoculated 24 h later, rated after 3-4 days; for Disease Control Rating at 500 ppm: eggplant sprayed with 500 ppm; for Disease Control Rating at 20 ppm: eggplant sprayed with 20 ppm; for Disease Control Rating at 100 ppm: eggplant sprayed with 100 ppm. Here is the method:
Eggplant seed are planted in 2.25" square pots, six per pot, and maintained in growth chambers set at 23° C., 80% humidity, and 12 h photoperiod. When the plants are at the cotyledon stage (14-18 days afterplanting), the plants are sprayed with 1.5 mL/pot of 500, 100 or 20 ppm 2:3 acetone:water (with 0.5% Tween® 20) formulations of the test compounds.
Twenty-four hours later the plants are inoculated with Botrytis cinerea, approximately 0.5 mL/pot of a 4×10^6 spore/mL suspension. The plantes are incubated at 23° C. and 100% humidity for 3-4 days, at which time disease control ratings are made based on presence and severity of Botrytis lesions.

For test [2], the system named is Botrytis cinerea. The test is described as follows: Vine grey mold (grape berries). It is filed as in vivo. As to conditions: average of six berries, 7-10 days; for pest or weed control at 50 ppm: grape berries treated with 50 ppm, read-out: % DISEASE CONTROL 50 ppm; for pest or weed control at 200 ppm: grape berries treated with 200 ppm, read-out: % DISEASE CONTROL 200 ppm. The protocol:
Grape berries, which have been washed and surfaced sterilized in 70% ethanol for one minute, are, except for the negative controls, treated with 0.2 mL of a 2:3 acetone/water formulation (containing 0.05% Tween® 20) of 200 or 50 ppm of the test compounds and placed one per well in 12-well plates. Six berries per treatment level are used. Twenty-four hours later each berry is inoculated with Botrytis cinerea conidia, 0.2 mL of 10^6 spores/mL suspension. The plates are incubated at 20° C. with a 12 hours photoperiod for 7-10 days and the percent surface area infected with the disease is determined for each replicate using the values of 0, 1, 2, 5, 7, 10, 15, 20, 25, 30, 35, 40, 45, 50, 55, 60, 65, 70, 75, 80, 85, 90, 95, and 100%. Treatment means are calculated and percent disease control is determined by the formula [(control mean - treatment mean)/control means]×100.
Some of the compounds have been tested more than once and the results shown are the average of the number of tests reported.

Test [3] has as its target T1, succinate dehydrogenase (Botrytis cinerea, UniProt A0A384J5E4+A0A384J8V8+A0A384JHJ5).
T1 construct: succinate-DCPIP reductase assay with KCN
Nature of the test: Enzyme inhibition: succinate dehydrogenase activity in Botrytis cinerea mitochondria (DCPIP reduction). The following applies: concentration required to inhibit the rate of DCPIP reduction by 50%; Botrytis cinerea isolate Nick mitochondria; read-out: I50 (μM conc.). It is filed as biochemical. Here is the method: Mitochondria were isolated by a method adapted from G.A. White [Biochem. Biophys. Res. Commun. 44: 1212, 1971]. Twenty to thirty grams of Botrytis cinerea isolate Nick were resuspended in 250 mL 0.25M sucrose, 5mM Na4 EDTA, pH 7.0 (+) 0.15% (w/v) bovine serum albumin (BSA) and placed in a Bead Beater chamber (Biospec Products, Bartlesville, Ok.). Zirconium oxide beads (0.5mm) were added to finish filling the chamber. Four 30 second beats separated by 2 minute temperature equilibration periods in the cold were used to break the mycelia. A crude mitochondrial preparation was harvested from the homogenate by differential centrifugation at 4° C. and resuspended in BSA-free sucrose/EDTA media and used for SDH assays.
The succinate dehydrogenase activity was measured at 600 nm in 50 mM potassium phosphate, pH 7.2, 1 mM KCN, 45 μM 2,6-dichlorophenolindophenol (DCPIP) and 17 mM disodium succinate (final volume, 1 mL) with a Perkin-Elmer Lambda 7 ultraviolet-visible spectrophotometer. The test compounds were added as acetone solutions (final concentration of acetone, 1% (v/v)). The mitochondrial preparatons were used to initiate the reaction. All rates were corrected for endogenous activities minus succinate. Semilog plots of percentage inhibition versus test compound concentration were used to determine inhibition expressed as I50 (μM) which is the concentration required to inhibit the rate of DCPIP reduction by 50%. The commercial fungicide carboxin was used as standard throughout.

For test [4], the system named is Rhizoctonia solani. The test is described as follows: Rice sheath blight. Also noted: scale not given here. As to conditions: inoculated two days later, rated after 7 days, average of five plants; for Disease Control Rating at 0.02 mg/mL: foliage and soil sprayed with 0.02 mg/mL; for Disease Control Rating at 0.1 mg/mL: foliage and soil sprayed with 0.1 mg/mL; for Disease Control Rating at 0.5 mg/mL: foliage and soil sprayed with 0.5 mg/mL. It is filed as in vivo. Here is the method:
Rice plants, 11 to 15 days old, are grown in 7.65 cm^2 pots. Each plant in the treatment groups is treated by spraying both the foliage and the soil surface, each with 2 mL of a water/acetone/Tween®20 formulation containing 0.5, 0.1, or 0.02 mg/mL of Compound A. The pots are placed in flood trays which are filled with water to just below the soil line. Two days later, approximately two grams of Rhizoctonia solani inoculum, cultured on rice grain for four to eight weeks, is applied to the base of the rice plants in each pot. After 7 days in a 25° C. high humidity growth chamber, each plant is evaluated for the level of disease contro as compared to untreated controls by the following scale and the average of five plants per treatment level is calculated.

T1 sequence (A0A384J5E4 1-300): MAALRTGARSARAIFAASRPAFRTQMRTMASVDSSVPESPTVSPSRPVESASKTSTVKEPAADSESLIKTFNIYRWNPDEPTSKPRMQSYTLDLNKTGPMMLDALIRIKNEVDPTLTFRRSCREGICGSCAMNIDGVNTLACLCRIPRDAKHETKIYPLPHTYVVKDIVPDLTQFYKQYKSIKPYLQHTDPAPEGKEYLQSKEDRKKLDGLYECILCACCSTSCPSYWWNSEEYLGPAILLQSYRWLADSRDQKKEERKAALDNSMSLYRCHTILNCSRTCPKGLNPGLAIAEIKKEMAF
T1 sequence (A0A384J8V8 1-189): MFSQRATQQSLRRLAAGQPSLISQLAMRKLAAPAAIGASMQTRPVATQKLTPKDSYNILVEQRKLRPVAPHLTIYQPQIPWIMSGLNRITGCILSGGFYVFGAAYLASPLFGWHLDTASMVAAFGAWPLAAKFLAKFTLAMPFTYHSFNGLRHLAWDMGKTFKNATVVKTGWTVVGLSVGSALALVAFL
T1 sequence (A0A384JHJ5 1-192): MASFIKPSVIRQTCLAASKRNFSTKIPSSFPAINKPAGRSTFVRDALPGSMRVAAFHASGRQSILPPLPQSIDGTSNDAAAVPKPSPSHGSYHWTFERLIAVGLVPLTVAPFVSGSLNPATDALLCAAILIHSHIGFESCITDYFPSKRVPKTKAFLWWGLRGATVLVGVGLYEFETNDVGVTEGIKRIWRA
T1 sequence (A0A384K456 1-647 partner): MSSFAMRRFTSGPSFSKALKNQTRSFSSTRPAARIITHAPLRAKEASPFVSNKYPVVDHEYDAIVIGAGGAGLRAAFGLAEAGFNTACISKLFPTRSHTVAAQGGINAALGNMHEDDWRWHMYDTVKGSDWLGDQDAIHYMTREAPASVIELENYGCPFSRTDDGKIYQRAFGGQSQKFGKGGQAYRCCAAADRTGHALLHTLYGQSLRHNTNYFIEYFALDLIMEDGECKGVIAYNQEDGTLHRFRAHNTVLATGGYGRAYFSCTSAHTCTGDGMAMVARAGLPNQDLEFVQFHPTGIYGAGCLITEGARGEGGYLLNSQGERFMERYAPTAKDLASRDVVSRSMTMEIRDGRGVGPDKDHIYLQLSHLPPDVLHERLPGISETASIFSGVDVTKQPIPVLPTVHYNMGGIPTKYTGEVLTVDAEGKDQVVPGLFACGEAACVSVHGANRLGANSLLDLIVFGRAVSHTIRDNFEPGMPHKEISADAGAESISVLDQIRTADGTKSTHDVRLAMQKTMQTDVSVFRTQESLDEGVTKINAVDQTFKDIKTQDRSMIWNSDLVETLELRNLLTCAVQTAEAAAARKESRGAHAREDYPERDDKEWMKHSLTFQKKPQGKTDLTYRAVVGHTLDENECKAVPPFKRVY

Turning to `Cn1cc(C(=O)Nc2ccccc2O[C@@H]2C[C@H]3CC[C@@H]2C3)c(C(F)(F)F)n1` (relative stereo) [Example 81], in test [1], the “Disease Control Rating at 500 ppm” value is given as 0. Moreover, in test [2], the pest or weed control at 50 ppm was found to be 0% and the pest or weed control at 200 ppm was 7%. Also, in test [3], the IC50 stood at 0.38 µM. Further, in test [4], the “Disease Control Rating at 0.02 mg/mL” value is 3, the “Disease Control Rating at 0.1 mg/mL” value is given as 3 and the “Disease Control Rating at 0.5 mg/mL” value is recorded as 3.
For the compound `Cn1cc(C(=O)Nc2ccccc2O[C@H]2C[C@H]3CC[C@@H]2C3)c(C(F)F)n1` (relative stereo) [Example 82, 1H-pyrazole-4-carboxamide, N-[2-(bicyclo[2.2.1]hept-2-yloxy)-phenyl]-3-(difluoromethyl)-1-methyl-, endo-], the “Disease Control Rating at 500 ppm” value in test [1] was 0. For the same compound, in test [2], the pest or weed control at 50 ppm is 0% and the pest or weed control at 200 ppm turned out to be 0%. In addition, the IC50 in test [3] was 0.065 µM. For the same compound, in test [4], the “Disease Control Rating at 0.02 mg/mL” value was determined as 3, the “Disease Control Rating at 0.1 mg/mL” value is given as 3 and the “Disease Control Rating at 0.5 mg/mL” value turned out to be 3.
For `Cn1nc(C(F)(F)F)c(C(=O)Nc2ccccc2[C@@H]2C[C@H]3CC[C@@H]2C3)c1F` (relative stereo) [Example 85, 1H-pyrazole-4-Carboxamide, N-(2-bicyclo[2.2.1]hept-2-ylphenyl)-5-fluoro-1-methyl-3-(trifluoromethyl)-, exo-], in test [1], the “Disease Control Rating at 20 ppm” value is recorded as 0, the “Disease Control Rating at 100 ppm” value is 1 and the “Disease Control Rating at 500 ppm” value came to 2. For the same compound, in test [2], the pest or weed control at 50 ppm was 28% and the pest or weed control at 200 ppm was determined as 99%. Further, the IC50 in test [3] worked out at 0.01 µM. Besides, in test [4], the “Disease Control Rating at 0.02 mg/mL” value turned out to be 1, the “Disease Control Rating at 0.1 mg/mL” value worked out at 3 and the “Disease Control Rating at 0.5 mg/mL” value is recorded as 3.
For `Cn1nc(C(F)(F)F)c(C(=O)Nc2ccccc2[C@@H]2C[C@H]3CC[C@@H]2C3)c1Cl` (relative stereo) [Example 88, 1H-pyrazole-4-carboxamide, N-(2-bicyclo[2.2.1]hept-2-ylphenyl)-5-chloro-1-methyl-3-(trifluoromethyl)-, exo-], in test [1], the “Disease Control Rating at 500 ppm” value worked out at 0. Moreover, in test [2], the pest or weed control at 50 ppm turned out to be 0% and the pest or weed control at 200 ppm stood at 0%. Besides, in test [3], the IC50 turned out to be 0.035 µM. Besides, the “Disease Control Rating at 0.5 mg/mL” value in test [4] was found to be 0.
On to `Cn1cc(C(=O)Nc2ccccc2[C@@H]2C[C@H]3CC[C@@H]2C3)c(C(F)(F)Cl)n1` (relative stereo) [Example 91, 1H-pyrazole-4-carboxamide, N-[2-bicyclo[2.2.1]hept-2-ylphenyl]-3-(chlorodifluoromethyl)-1-methyl-, exo-], for which the “Disease Control Rating at 500 ppm” value in test [1] is 0. Also, in test [2], the pest or weed control at 50 ppm was found to be 0% and the pest or weed control at 200 ppm stood at 14%. Moreover, the IC50 in test [3] was 0.078 µM. Moreover, in test [4], the “Disease Control Rating at 0.5 mg/mL” value is reported as 0.
As for `Cc1c(C(=O)Nc2ccccc2[C@@H]2C[C@H]3CC[C@@H]2C3)c(C(F)(F)F)nn1C` (relative stereo) [Example 100, 1H-pyrazole-4-carboxamide, N-(2-bicyclo[2.2.1]hept-2-ylphenyl)-1,5-dimethyl-3-(trifluoromethyl)-, exo-], the “Disease Control Rating at 500 ppm” value in test [1] turned out to be 0. Besides, in test [2], the pest or weed control at 50 ppm is 0% and the pest or weed control at 200 ppm is 22%. The IC50 in test [3] is 0.19 µM. Further, in test [4], the “Disease Control Rating at 0.02 mg/mL” value worked out at 0, the “Disease Control Rating at 0.1 mg/mL” value turned out to be 1 and the “Disease Control Rating at 0.5 mg/mL” value was 2.
`Cn1cc(C(=S)Nc2ccccc2[C@@H]2C[C@H]3CC[C@@H]2C3)c(C(F)F)n1` (relative stereo) [Example 102, 1H-pyrazole-4-carbothioamide, N-(2-bicyclo[2.2.1]hept-2-ylphenyl)-3-(difluoromethyl)-1-methyl-, exo-]: in test [1], the “Disease Control Rating at 500 ppm” value turned out to be 1. In addition, in test [2], the pest or weed control at 50 ppm came to 88% and the pest or weed control at 200 ppm amounted to 83%. In addition, the IC50 in test [3] stood at 16 µM. In test [4], the “Disease Control Rating at 0.02 mg/mL” value is recorded as 3, the “Disease Control Rating at 0.1 mg/mL” value was found to be 3 and the “Disease Control Rating at 0.5 mg/mL” value is listed as 3.
Turning to `Cc1c(C(=S)Nc2ccccc2[C@@H]2C[C@H]3CC[C@@H]2C3)c(Cl)nn1C` (relative stereo) [Example 103, 1H-pyrazole-4-carbothioamide, N-(2-bicyclo[2.2.1]hept-2-ylphenyl)-3-chloro-1,5-dimethyl-, exo-], the “Disease Control Rating at 500 ppm” value in test [1] is given as 0. Also, in test [2], the pest or weed control at 50 ppm was 5% and the pest or weed control at 200 ppm is 18%. The IC50 in test [3] was determined as 0.52 µM. The “Disease Control Rating at 0.5 mg/mL” value in test [4] is listed as 0.
Take `Cc1nn(C)c(Cl)c1C(=O)Nc1ccccc1[C@@H]1C[C@H]2CC[C@@H]1C2` (relative stereo) [Example 106, 1H-pyrazole-4-carboxamide, N-(2-bicyclo[2.2.1]hept-2-ylphenyl)-5-chloro-1,3-dimethyl-, exo-]: the “Disease Control Rating at 500 ppm” value in test [1] came to 0. In test [2], the pest or weed control at 50 ppm was determined as 9% and the pest or weed control at 200 ppm turned out to be 3%. Moreover, the IC50 in test [3] is 0.094 µM. Further, in test [4], the “Disease Control Rating at 0.02 mg/mL” value came to 2, the “Disease Control Rating at 0.1 mg/mL” value was found to be 3 and the “Disease Control Rating at 0.5 mg/mL” value is 3.
With `Cc1ccccc1NC(=O)c1c(C)nn(C)c1C` [Compound H, N-(2-methylphenyl)-1,3,5-(trimethyl)-4-pyrazolecarboxamide, reference compound], the “Disease Control Rating at 500 ppm” value in test [1] turned out to be 0. Further, in test [2], the pest or weed control at 50 ppm worked out at 5% and the pest or weed control at 200 ppm amounted to 9%. The IC50 in test [3] is 475 µM. The “Disease Control Rating at 0.5 mg/mL” value in test [4] amounted to 0.
On to `Cn1cc(C(=O)Nc2ccccc2C2CCCCC2)c(C(F)F)n1` [Example 1, 1H-pyrazole-4-carboxamide, N-(2-cyclohexylphenyl)-3-(difluoromethyl)-1-methyl-], for which, in test [1], the “Disease Control Rating at 20 ppm” value amounted to 3, the “Disease Control Rating at 100 ppm” value was 3 and the “Disease Control Rating at 500 ppm” value amounted to 3. In test [2], the pest or weed control at 50 ppm amounted to 92% and the pest or weed control at 200 ppm was found to be 94%. In addition, in test [3], the IC50 amounted to 0.0095 µM. In test [4], the “Disease Control Rating at 0.02 mg/mL” value was 2, the “Disease Control Rating at 0.1 mg/mL” value worked out at 0 and the “Disease Control Rating at 0.5 mg/mL” value worked out at 0.
